Source: patent US20160137639A1, “TRIAZOLE-ISOXAZOLE COMPOUND AND MEDICAL USE THEREOF” (JAPAN TOBACCO INC., priority 2012, published 2016)
Like-named read-outs stand apart in the source and are kept apart here.

Key:
mouse RORγ = biological target: T1, mouse RORγ (Mus musculus, UniProt P51450); assay: Luciferase reporter gene assay of inhibitory effect against RORγ transcriptional activity (GAL4-mRORγ plasmid in CHO cells); assay type: cell-based
T1 construct: mouse, NM_011281.2 and from Ile251 to Lys516; expressed in transfected cells; host or cells: CHO cells (transient co-transfection with pG5-Luc reporter)
T1 sequence (P51450 251-516): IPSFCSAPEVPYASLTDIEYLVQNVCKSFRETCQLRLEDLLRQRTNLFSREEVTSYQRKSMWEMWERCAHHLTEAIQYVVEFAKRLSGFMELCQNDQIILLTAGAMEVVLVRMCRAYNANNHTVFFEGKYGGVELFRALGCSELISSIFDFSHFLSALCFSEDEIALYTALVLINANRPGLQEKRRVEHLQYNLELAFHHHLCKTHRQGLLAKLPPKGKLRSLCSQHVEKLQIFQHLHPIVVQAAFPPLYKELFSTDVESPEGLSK
In short: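 CHO cells transiently co-transfected with GAL4-mouse RORγ LBD (Ile251–Lys516) and GAL4-dependent luciferase reporter; eight compound concentrations, 0.1% DMSO, 2 days at 37 °C. Luminescence as %-of-vehicle control; EC50 by curve fit, cytotoxic concentrations excluded.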

human RORγ = biological target: T2, human RORγ (Homo sapiens, UniProt P51449); assay: Luciferase reporter gene assay of inhibitory effect against RORγ transcriptional activity (GAL4-hRORγ plasmid in CHO cells); assay type: cell-based
T2 construct: human, NM_005060.3 and from Ser253 to Lys518; expressed in transfected cells; host or cells: CHO cells (transient co-transfection with pG5-Luc reporter)
T2 sequence (P51449 253-518): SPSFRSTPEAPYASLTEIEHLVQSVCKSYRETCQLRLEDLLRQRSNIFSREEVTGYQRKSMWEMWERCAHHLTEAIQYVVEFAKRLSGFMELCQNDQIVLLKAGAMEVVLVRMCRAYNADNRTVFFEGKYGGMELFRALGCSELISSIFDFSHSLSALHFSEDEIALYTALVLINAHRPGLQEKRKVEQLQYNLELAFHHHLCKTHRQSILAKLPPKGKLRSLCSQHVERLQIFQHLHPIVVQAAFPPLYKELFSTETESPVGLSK

SMILES	EC50 (mouse RORγ; read-out: LUC EC50 (μM) mRORg) [µM]	EC50 (human RORγ; read-out: LUC EC50 (μM) hRORg) [µM]	EC50 (mouse RORγ; read-out: LUC EC50 mRORg) [µM]	EC50 (human RORγ; read-out: LUC EC50 hRORg) [µM]
Cc1ccc(NC(=O)CC(CO)c2nnc(CCCC(C)C)n2C2CC2)c(C)c1 (racemic) [Example F-271]	< 3	< 3	–	–
CCn1c(CCC(=O)Nc2ccc(Cl)cc2Cl)nnc1C1Cc2ccccc2C1 [Example F-31]	> 3	> 3	–	–
CC(=O)N1C[C@H](C(=O)Nc2cccc(C)c2C)[C@@H](c2nnc(CCCC(C)(C)C)n2C2CC2)C1 (racemic) [Example F-324]	< 3	< 3	–	–
Cc1ccc(NC(=O)C[C@H](CCO)c2noc([C@H]3C[C@@H](CC(C)C)C3)c2C2CC2)c(C)c1 [Example F-578]	–	–	< 3	< 3
Cc1ccc(NC(=O)C[C@H](CCC(=O)O)c2noc3c2CCCC3CCC(C)C)c(Cl)c1 (single isomer, unassigned) [Example F-698]	–	–	< 3	< 3
Cc1noc(NC(=O)C[C@H](CCC(=O)O)c2noc([C@H]3C[C@@H](CC(C)(C)C)C3)c2C2CC2)c1C [Example F-679]	–	–	< 3	< 3
Cc1c(Cl)cccc1NC(=O)CC(CCCO)c1nnc(CCC(C)C)n1C1CC1 (racemic) [Example F-196]	< 3	< 3	–	–
Cc1ccc(NC(=O)C[C@H](CCC(=O)O)c2noc3c2C(C)CCC3CCC(C)C)c(Cl)c1 (single isomer, unassigned) [Example F-690]	–	–	< 3	> 3
Cc1ccc(NC(=O)[C@H]2CCCN(C(=O)CO)[C@@H]2c2nnc(CCCC(C)(C)C)n2C2CC2)c(C)c1 [Example F-308]	< 3	< 3	–	–
COc1cccc(CNC(=O)CCc2nnc(CCC(C)C)n2C2CC2)c1C [Example F-127]	> 3	> 3	–	–
CC(=O)N1CC([C@H](CC(=O)Nc2ccc(C)cc2C)c2nnc([C@H]3C[C@@H](CC(C)C)C3)n2C2CC2)C1 [Example F-467]	> 3	> 3	–	–
Cc1ccc(NC(=O)C[C@H](CC(=O)NC(C)(C)C)c2noc([C@H]3C[C@@H](CC(C)C)C3)c2C2CC2)c(C)c1 [Example F-639]	–	–	< 3	< 3
CCn1c(CCC2CCCCC2)nnc1[C@H]1CCCC[C@@H]1C(=O)Nc1cccc2ccccc12 (racemic) [Example F-35]	< 3	< 3	–	–
Cc1c(Cl)cccc1NC(=O)CCc1nnc(CCC2CCC(F)(F)CC2)n1C1CC1 [Example F-254]	< 3	< 3	–	–
C=CCC(CC(=O)Nc1cccc(Cl)c1C)c1nnc(CCC2CCCCC2)n1C1CC1 (racemic) [Example F-244]	< 3	< 3	–	–
CC(C)(C)Cc1cc(-c2onc([C@H](CCC(=O)O)CC(=O)Nc3ccc(Cl)cc3Cl)c2C2CC2)no1 [Example E-79]	–	–	< 3	< 3
CCC(CC)C[C@H]1C[C@@H](c2nnc(CCC(=O)Nc3ccc(C)cc3C)n2C2CC2)C1 [Example F-496]	–	–	< 3	< 3
Cc1ccc(NC(=O)C[C@@H](CCO)c2nnc(CCCC(C)C)n2C2CC2)c(C)c1 [Example F-313]	> 3	> 3	–	–
Cc1ccc(NC(=O)[C@H]2C(=O)N(C)C[C@@H]2c2nnc(CCCC(C)(C)C)n2C2CC2)c(C)c1 [Example F-302]	< 3	< 3	–	–
Cc1ccc(NCc2nnc(CCC(=O)Nc3cccc(Cl)c3C)n2C2CC2)cc1 [Example F-180]	< 3	> 3	–	–
Cc1ccc(NC(=O)C[C@H](CCO)c2nnc(CCC3CCCCC3)n2C2CC2)c(C)c1 [Example F-385]	< 3	< 3	–	–
CCc1c(CCC(=O)Nc2cccc3ccccc23)noc1C1Cc2ccccc2C1 [Example F-14]	< 3	< 3	–	–
Cc1ccc(NC(=O)[C@H]2CN(C(=O)N3CCN(C)CC3)C[C@@H]2c2nnc([C@H]3C[C@@H](CC(C)C)C3)n2C2CC2)c(C)c1 [Example F-655]	–	–	< 3	< 3
Cc1ccc(NC(=O)CC(Cc2ccccc2)c2nnc(CCCC(C)(C)C)n2C2CC2)c(C)c1 (racemic) [Example F-436]	< 3	< 3	–	–
Cc1ccc(NC(=O)CCc2noc(C(F)(F)c3cc(C(C)(C)C)no3)c2C2CC2)c(Cl)c1 [Example F-740]	–	–	< 3	< 3

SMILES	EC50 (mouse RORγ; read-out: LUC EC50 (μM) mRORg) [µM]	EC50 (human RORγ; read-out: LUC EC50 (μM) hRORg) [µM]	EC50 (mouse RORγ; read-out: LUC EC50 mRORg) [µM]	EC50 (human RORγ; read-out: LUC EC50 hRORg) [µM]
C=CCOc1ccc(-c2nnc(CCC(=O)Nc3ccc(C)cc3C)n2C2CC2)cc1 [Example F-460]	> 3	> 3	–	–
Cc1cc(O)ccc1CNC(=O)CCc1nnc(CCC(C)C)n1C1CC1 [Example F-114]	> 3	> 3	–	–
Cc1ccc(NC(=O)CCc2noc([C@H]3C[C@@H](CC(C)C)C3)c2/C=C/C(=O)O)c(C)c1 [Example F-646]	–	–	> 3	> 3
CC(C)(C)C(F)(F)c1cc(-c2onc([C@@H](CCC(=O)O)CC(=O)Nc3ccc(Cl)cc3F)c2C(F)F)no1 [Example E-62, Sodium (S)-5-(4-chloro-2-fluoro-phenylcarbamoyl)-4-[5-(1,1-difluoro-2,2-dimethylpropyl)-4′-difluoromethyl-[3,5′]biisoxazolyl-3′-yl]-pentanoate]	< 3	< 3	–	–
Cc1ccc(NC(=O)[C@H]2C[C@@H](O)C[C@@H]2c2nnc([C@H]3C[C@@H](CC(C)C)C3)n2C2CC2)c(C)c1 [Example F-470]	< 3	< 3	–	–
Cc1ccc(CCNC(=O)CCc2nnc(CCC(C)C)n2C2CC2)cc1 [Example F-67]	> 3	> 3	–	–
Cc1ccc(NC(=O)C[C@H](CCC(=O)O)c2noc(-c3cc(CCC(F)(F)F)on3)c2C2CC2)c(Cl)c1 [Example E-50]	< 3	< 3	–	–
CC(=O)NCCCC(CC(=O)Nc1ccc(C)cc1C)c1nnc(CCCC(C)C)n1C1CC1 (racemic) [Example F-287]	> 3	> 3	–	–
Cc1ccc(NC(=O)[C@@H](CCC(=O)O)Cc2noc([C@H]3C[C@@H](CC(C)(C)C)C3)c2C2CC2)c(Cl)c1 [Example F-684, (S)-4-(2-chloro-4-methyl-phenylcarbamoyl)-5-{4-cyclopropyl-5-[3-(2,2-dimethyl-propyl)-cyclobutyl]-isoxazol-3-yl}-pentanoic acid]	–	–	< 3	< 3
CC(=O)N1C[C@H](C(=O)Nc2cccc(Cl)c2C)[C@@H](c2nnc(CCC(C)C)n2C2CC2)C1 (racemic) [Example F-145]	< 3	< 3	–	–
Cc1ccc(NC(=O)C[C@H](CCC(=O)O)c2noc(-c3cc(C(F)(F)C4CCCC4)on3)c2C2CC2)c(Cl)c1 [Example E-39]	< 3	< 3	–	–
CCn1c(CCCC(C)(C)C)nnc1[C@@H]1[C@@H](C(=O)NCc2ccc(C)cc2OC)CCN1C(C)=O [Example F-370]	< 3	< 3	–	–
COC1(CC(C)C)CC(c2nnc([C@H]3CN(C(C)=O)C[C@@H]3C(=O)Nc3ccc(C)cc3C)n2C2CC2)C1 (single isomer, unassigned) [Example F-482]	< 3	< 3	–	–
Cc1ccc(NC(=O)[C@H]2CN(C)C(=O)[C@@H]2c2nnc(CCCC(C)(C)C)n2C2CC2)c(C)c1 [Example F-303]	< 3	< 3	–	–
CCC(C)CCc1nnc(CCC(=O)Nc2ccc(C)cc2C)n1C1CC1 (racemic) [Example F-236]	< 3	> 3	–	–
CCn1c(CCC(=O)Nc2cc(Cl)cc(Cl)c2)nnc1C1Cc2ccccc2C1 [Example F-29]	> 3	> 3	–	–
Cc1ccc(NC(=O)CC(CCOC(=O)N(C)C)c2nnc([C@H]3C[C@@H](CC(C)C)C3)n2C2CC2)c(C)c1 (mixture of isomers) [Example F-484]	< 3	< 3	–	–
Cc1ccc(NC(=O)CCc2nnc(CCC3CCCCC3)n2CC(F)(F)F)c(C)c1 [Example F-142]	< 3	< 3	–	–
CC(=O)N1C[C@H](C(=O)Nc2ccc(C)cc2C)[C@@H](c2nnc(CCC3CCCCC3)n2C2CC2)C1 (racemic) [Example F-191]	< 3	< 3	–	–
Cc1ccc(NC(=O)C[C@H](CCC(=O)O)c2noc(-c3cc(C4CC(CC(C)(C)C)C4)on3)c2C2CC2)c(Cl)c1 (some centres unmarked) [Example E-17]	< 3	< 3	–	–
Cc1c(Cl)cccc1NC(=O)CCc1nnc([C@H]2CC[C@H](C(C)C)CC2)n1C1CC1 [Example F-280]	< 3	< 3	–	–
COCc1ccc(NC(=O)CCc2nnc(CCC(C)C)n2C2CC2)c(C)c1 [Example F-136]	> 3	> 3	–	–
Cc1ccc(NC(=O)C[C@H](NC(=O)OCc2ccccc2)c2nnc(CCCC(C)(C)C)n2C2CC2)c(C)c1 [Example F-355]	< 3	< 3	–	–
COC(=O)N1C[C@H](C(=O)Nc2ccc(C)cc2C)[C@@H](c2nnc(CCCC(C)(C)C)n2C2CC2)C1 (racemic) [Example F-399]	< 3	< 3	–	–
